The source of these data is patent US9040707B2, “Bicyclic thiazoles as allosteric modulators of mGluR5 receptors” (Janssen Pharmaceutica NV, priority 2009, dated 2015).

The target in one data set is T1, human mGluR5 receptor (Homo sapiens, UniProt P41594).
T1 construct: expressed in transfected cells; host or cells: HEK-293
Briefly: Functional Assay 1: intracellular Ca2+ mobilization, positive allosteric modulation of glutamate EC20 response. In kind it is cell-based. The note with it: for Emax: maximum % effect relative to glutamate ECMax. A general note: Calcium assays in cells follow changes in intracellular calcium, usually with a dye or a luminescent sensor.

A further data set concerns the target T2, human mGluR5a receptor (Homo sapiens, UniProt P41594).
T2 construct: host or cells: HEK293A (monoclones H10H and H12H)
The data set can be described thus: Functional Assay 2: Ca2+ mobilization, HEK cells with human mGluR5a receptor (H10H cell line). The data set is classed as cell-based. The settings on record: H10H cell line; for EC50: glutamate EC20; for Emax: HEK293, maximum average response at a single concentration, relative to glutamate ECMax. The protocol: Human mGluR5a cDNA in pCMV6-XL6 mammalian expression plasmid was purchased from OriGene Technologies, Inc. (catalogue number SC326357) and subcloned into pcDNA3.1(−). […] Monoclones were named for the species (“H” for human) plus the location on the plate (e.g. “10H”).
The following day, the growth medium was removed and the cells were washed with assay buffer containing 1× Hank's balanced salt solution (Invitrogen, Carlsbad, Calif.), 20 mM HEPES, 2.5 mM probenecid, pH 7.4 and left with 20 μL of this reagent. Following this step, the cells were loaded with calcium indicator dye, fluo-4 AM, to a final concentration of 2 μM and incubated for 40-45 min at 37° C. The dye solution was removed and replaced with assay buffer. Cell plates were held for 10-15 min at room temperature and were then loaded into the Functional Drug Screening System 6000 (FDSS 6000, Hamamatsu, Japan).
After establishment of a fluorescence baseline for about 3 seconds, the compounds of the present invention were added to the cells, and the response in cells was measured. 2.3 minutes later an EC20 concentration of the mGluR5 receptor agonist glutamate was added to the cells, and the response of the cells was measured for about 1.7 minutes. All test compounds were dissolved and diluted to a concentration of 10 mM in 100% DMSO and then serially diluted into assay buffer for a 2× stock solution in 0.6% DMSO; stock compounds were then added to the assay for a final DMSO concentration of 0.3% after the first addition to the assay well. Calcium fluorescence measures were recorded as fold over basal fluorescence; raw data was then normalized to the maximal response to glutamate.
The concentration-response curves of compounds of the present invention, obtained in the presence of EC20 of mGluR5 receptor agonist glutamate to determine positive allosteric modulation, were generated using Microsoft Excel with IDBS XLfit add-ins. The raw data file containing all time points was used as the data source in the analysis template. This was saved by the FDSS as a tab-delimitted text file. Data were normalized using a static ratio function (F/F0) for each measurement of the total 350 values per well divided by each well's initial value. […] This is sufficient time to capture the peak amplitude of the cellular calcium response. […] Each of the three values collected at each concentration of test compound were weighted evenly. […] These two methods are in good agreement for curves with a clear plateau at the high concentration range.

Where [1] appears, read: human mGluR5 over-expressing HEK-293 cells, glutamate EC20 (~0.2 μM), updated value.
Setting [2] is: original value, which was updated as compound was further tested.

Broadly, the EC50 is the concentration needed to bring the measured effect to its halfway point. A low value points to greater potency. The Emax is the size of the effect at its maximum, as opposed to the concentration needed. The melting point is the temperature, or range, at which the solid turns liquid.

T1 sequence (P41594 21-1180 isoform P41594-2 limits assumed): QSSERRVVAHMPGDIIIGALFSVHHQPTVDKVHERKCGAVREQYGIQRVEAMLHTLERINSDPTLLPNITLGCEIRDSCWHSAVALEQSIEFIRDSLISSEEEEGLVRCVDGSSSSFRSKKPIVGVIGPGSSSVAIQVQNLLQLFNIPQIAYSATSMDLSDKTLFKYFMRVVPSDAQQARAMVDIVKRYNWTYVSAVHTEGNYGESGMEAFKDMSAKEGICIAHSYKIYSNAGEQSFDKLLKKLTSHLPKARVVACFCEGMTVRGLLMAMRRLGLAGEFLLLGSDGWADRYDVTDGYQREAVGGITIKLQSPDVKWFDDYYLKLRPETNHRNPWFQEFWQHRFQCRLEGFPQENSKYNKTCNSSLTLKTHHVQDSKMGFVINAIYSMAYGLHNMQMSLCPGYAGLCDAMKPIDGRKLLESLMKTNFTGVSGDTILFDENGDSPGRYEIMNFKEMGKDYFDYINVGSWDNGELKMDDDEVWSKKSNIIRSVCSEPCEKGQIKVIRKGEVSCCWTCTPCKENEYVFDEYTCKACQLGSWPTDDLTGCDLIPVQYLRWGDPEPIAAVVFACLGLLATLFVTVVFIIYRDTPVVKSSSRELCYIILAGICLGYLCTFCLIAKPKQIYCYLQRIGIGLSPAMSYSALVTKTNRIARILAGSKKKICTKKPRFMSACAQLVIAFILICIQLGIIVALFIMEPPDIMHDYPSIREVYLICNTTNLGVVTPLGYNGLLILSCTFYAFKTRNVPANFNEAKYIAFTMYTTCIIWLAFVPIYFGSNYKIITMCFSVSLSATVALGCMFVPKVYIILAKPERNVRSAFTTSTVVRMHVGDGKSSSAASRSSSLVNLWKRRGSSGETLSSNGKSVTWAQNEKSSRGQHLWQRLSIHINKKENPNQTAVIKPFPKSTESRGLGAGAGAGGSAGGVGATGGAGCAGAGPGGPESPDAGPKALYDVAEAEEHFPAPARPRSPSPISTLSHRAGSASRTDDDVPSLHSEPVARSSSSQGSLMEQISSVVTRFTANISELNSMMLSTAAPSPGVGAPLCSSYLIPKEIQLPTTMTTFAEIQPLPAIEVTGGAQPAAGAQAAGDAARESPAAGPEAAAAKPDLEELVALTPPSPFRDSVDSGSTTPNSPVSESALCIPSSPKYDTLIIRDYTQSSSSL
T2 sequence (P41594 21-1180 isoform P41594-2 limits assumed): as above
Method for human mGluR5 receptor: HEK-293 cells were stable transfected with human mGluR5a cDNA in expression vector pcDNA4/TO. For Assay 1, these human mGluR5 receptor over-expressing HEK-293 cells were grown at a density of 40,000 cells/well in PDL-coated 384-well plates. The following day, cells were preloaded with the calcium-sensing dye Fluo-4 AM and various concentrations of test compound were added in the absence of exogenous glutamate to test for direct agonist activity. Shortly (2.5 min) thereafter, an EC20 equivalent of glutamate (˜0.2 μM) was added. The fluorescence signal was monitored using a Hamamatsu Functional Drug Screening System (FDSS) fluorescence plate reader following the addition of compound alone (direct agonist response) and then the further addition of an EC20 of glutamate (positive allosteric modulation response). The pEC50 was defined as the negative log of the test compound concentration which produced an increase in the glutamate EC20-mediated response that was 50% of maximum. Individual amplitudes were expressed as % effect by multiplying each amplitude by 100 and then dividing the product by the mean of the amplitudes derived from the glutamate ECMax-treated wells. Emax values reported in this application are defined as the maximum % effect obtained in a concentration-response curve.

The compound `O=C1c2sc(OCc3ccccc3)nc2CCN1c1ccc(F)cc1F` [Compound 12, 5-(2,4-difluorophenyl)-6,7-dihydro-2-(phenylmethoxy)-thiazolo[5,4-c]pyridin-4(5H)-one] returned a melting point of 135 °C. The same compound gave an EC50 at human mGluR5 receptor (setting [1]) of 1.95 µM. The compound further came in with an Emax on human mGluR5 receptor of 71%. The compound also had an EC50 on human mGluR5 receptor (setting [2]) of 0.55 µM. Further, on human mGluR5a receptor, the midpoint of the response, the EC50, lay at 0.182 µM and the Emax was 67%.
On to `O=C1c2sc(OCc3ccccc3)nc2CCN1Cc1ccc(F)cc1` [Compound 14, 5-[(4-fluorophenyl)methyl]-6,7-dihydro-2-(phenylmethoxy)-thiazolo[5,4-c]pyridin-4(5H)-one], for which the melting point lay within 95.8 to 99 °C. Moreover, a half-maximal response on human mGluR5 receptor (setting [1]) (EC50) required 5.13 µM. The same compound showed an Emax on human mGluR5 receptor of 88%. At human mGluR5 receptor (setting [2]), this compound had an EC50 of 4.47 µM. For the same compound, at human mGluR5a receptor, the EC50 is 2.24 µM and the Emax was 52%.
The compound `O=C1c2sc(OCc3ccccc3)nc2CCN1Cc1cccc(F)c1` [Compound 15, 5-[(3-fluorophenyl)methyl]-6,7-dihydro-2-(phenylmethoxy)-thiazolo[5,4-c]pyridin-4(5H)-one] gave a melting point of 80.1 to 82 °C. A half-maximal response at human mGluR5 receptor (setting [1]) (EC50) required 3.72 µM. This compound also had a maximal effect (Emax) at human mGluR5 receptor of 67%. The compound further had an EC50 on human mGluR5 receptor (setting [2]) of 2.57 µM. Further, on human mGluR5a receptor, the EC50 was 0.912 µM and the Emax amounted to 59%.
In turn, `O=C1c2sc(OCc3ccccc3)nc2CCN1Cc1ccccc1F` [Compound 16, 5-[(2-fluorophenyl)methyl]-6,7-dihydro-2-(phenylmethoxy)-thiazolo[5,4-c]pyridin-4(5H)-one] returned a melting point of 77.4 to 79.2 °C. Moreover, at human mGluR5 receptor (setting [1]), the EC50 is 5.37 µM. Further, the Emax at human mGluR5 receptor was determined as 88%. The compound also showed an EC50 on human mGluR5 receptor (setting [2]) of 3.63 µM. In addition, on human mGluR5a receptor, the EC50 was 1.23 µM and the Emax amounted to 56%.
As for `O=C1c2sc(OCc3cccc(F)c3)nc2CCN1c1ccc(F)cc1F` [Compound 17, 5-(2,4-difluorophenyl)-2-[(3-fluorophenyl)methoxy]-6,7-dihydro-thiazolo[5,4-c]pyridin-4(5H)-one], the melting point lay in the range of 121.1 to 122.7 °C. Further, on human mGluR5 receptor (setting [1]), the EC50 was 0.692 µM. This compound also had an Emax at human mGluR5 receptor of 82%. The same compound showed an EC50 at human mGluR5 receptor (setting [2]) of 0.741 µM. At human mGluR5a receptor, this compound gave an EC50 of 0.295 µM and an Emax of 61%.
As to `O=C1c2sc(OCc3ccc(F)cc3F)nc2CCN1c1ccc(F)cc1F` [Compound 23, 5-(2,4-difluorophenyl)-2-[(2,4-difluorophenyl)methoxy]-6,7-dihydro-thiazolo[5,4-c]pyridin-4(5H)-one], the melting point lay within 104.3 to 107.2 °C. The compound also had an EC50 on human mGluR5 receptor (setting [1]) of 0.955 µM. Also, the Emax on human mGluR5 receptor was 54%.
`O=C1c2sc(OCc3cccc(F)c3)nc2CCN1c1ccc(C(F)(F)F)cc1` [Compound 26, 2-[(3-fluorophenyl)methoxy]-6,7-dihydro-5-[4-(trifluoromethyl)phenyl]-thiazolo[5,4-c]pyridin-4(5H)-one] had a melting point of 130 to 131.5 °C. This compound showed an EC50 on human mGluR5 receptor (setting [1]) of 0.214 µM. At human mGluR5 receptor, this compound showed a maximal effect (Emax) of 46%.
In the same order, the values of `O=C1c2sc(OCc3cccc(F)c3)nc2CCN1c1cccc(F)c1` [Compound 27, 5-(3-fluorophenyl)-2-[(3-fluorophenyl)methoxy]-6,7-dihydro-thiazolo[5,4-c]pyridin-4(5H)-one] are 111.3 to 111.9 °C, 0.11 µM and 57%.
`O=C1c2sc(COc3ccc(Cl)cc3)nc2CCN1c1ccc(F)cc1` [Compound 60, 2-[(4-chlorophenoxy)methyl]-5-(4-fluorophenyl)-6,7-dihydro-thiazolo[5,4-c]pyridin-4(5H)-one] came in with a melting point of 186.9 °C. In addition, the EC50 at human mGluR5 receptor (setting [1]) was > 30.2 µM. Besides, at human mGluR5 receptor, the Emax came to 28%.
`O=C1c2sc(COc3ccccc3F)nc2CCN1C1CC1` [Compound 61, 5-cyclopropyl-2-[(2-fluorophenoxy)methyl]-6,7-dihydro-thiazolo[5,4-c]pyridin-4(5H)-one] showed a melting point of 235.8 to 240.2 °C. For the same compound, at human mGluR5a receptor, the EC50 was > 30.2 µM and the Emax worked out at 27%.
The compound `O=C1c2sc(COc3ccc(F)cc3)nc2CCN1C1CC1` [Compound 62, 5-cyclopropyl-2-[(4-fluorophenoxy)methyl]-6,7-dihydro-thiazolo[5,4-c]pyridin-4(5H)-one] came in with a melting point of 126.3 to 130.8 °C. For the same compound, at human mGluR5a receptor, the EC50 was > 10 µM and the Emax came out at 51%.
For the compound `O=C1c2sc(OCc3cc(F)cc(F)c3)nc2CCN1c1ccc(F)cc1F` [Compound 73, 5-(2,4-difluorophenyl)-2-[(3,5-difluorophenyl)methoxy]-6,7-dihydro-thiazolo[5,4-c]pyridin-4(5H)-one], the melting point lay within 127 to 130.5 °C. Moreover, at human mGluR5a receptor, the EC50 is > 30.2 µM and the Emax stood at 16%.
With `O=C1c2sc(OCc3ccc(F)c(F)c3)nc2CCN1c1ccc(F)cc1F` [Compound 74, 5-(2,4-difluorophenyl)-2-[(3,4-difluorophenyl)methoxy]-6,7-dihydro-thiazolo[5,4-c]pyridin-4(5H)-one], the melting point fell in the range of 136.9 to 137.2 °C. Besides, the EC50 at human mGluR5 receptor (setting [1]) was > 30.2 µM. This compound gave an Emax on human mGluR5 receptor of 32%.
With `N#Cc1ccc(COc2nc3c(s2)C(=O)N(c2ccc(F)cc2F)CC3)cc1` [Compound 75, 4-[[[5-(2,4-difluorophenyl)-4,5,6,7-tetrahydro-4-oxothiazolo[5,4-c]pyridin-2-yl]oxy]methyl]-benzonitrile], the melting point was 180.9 to 183.1 °C. In addition, the EC50 on human mGluR5 receptor (setting [1]) is > 30.2 µM. For the same compound, the Emax on human mGluR5 receptor amounted to 19%.
`N#Cc1ccccc1COc1nc2c(s1)C(=O)N(c1ccc(F)cc1F)CC2` [Compound 76, 2-[[[5-(2,4-difluorophenyl)-4,5,6,7-tetrahydro-4-oxothiazolo[5,4-c]pyridin-2-yl]oxy]methyl]-benzonitrile]: the melting point is 166.1 to 168.3 °C. Also, the EC50 on human mGluR5 receptor (setting [1]) is > 30.2 µM. In addition, the Emax on human mGluR5 receptor amounted to 19%.
For the compound `O=C1c2sc(OCc3ccc(C(F)(F)F)cc3)nc2CCN1c1ccc(F)cc1F` [Compound 78, 5-(2,4-difluorophenyl)-6,7-dihydro-2-[[4-(trifluoromethyl)phenyl]methoxy]-thiazolo[5,4-c]pyridin-4(5H)-one], the melting point was > 280 °C. In addition, on human mGluR5 receptor (setting [1]), the EC50 is > 30.2 µM. This compound yielded an Emax at human mGluR5 receptor of 27%.
In the same order, the values of `COc1ccccc1COc1nc2c(s1)C(=O)N(c1ccc(F)cc1F)CC2` [Compound 79, 5-(2,4-difluorophenyl)-6,7-dihydro-2-[(2-methoxyphenyl)methoxy]-thiazolo[5,4-c]pyridin-4(5H)-one] are > 280 °C, > 30.2 µM and 21%.
`O=C1c2sc(OCc3ccccc3C(F)(F)F)nc2CCN1c1ccc(F)cc1F` [Compound 81, 5-(2,4-difluorophenyl)-6,7-dihydro-2-[[2-(trifluoromethyl)phenyl]methoxy]-thiazolo[5,4-c]pyridin-4(5H)-one]: the melting point is > 280 °C. Also, the EC50 on human mGluR5 receptor (setting [1]) is > 30.2 µM. This compound also displayed an Emax at human mGluR5 receptor of 25%.
